Test results from patent US20250152593A1, “p38 MAPK INHIBITORS AND USES THEREOF” (CITY OF HOPE, priority 2023, published 2025).

Assays:
K562 CML cells = assay: cell-based assay, K562 CML cells; conditions: Homo sapiens, read-out: IC50 against K562 CML cells
Excerpt: (§1) Quinazoline derivatives were initially tested with various cancer types of cell lines using a cell-based assay.

[1] = test system: RPMI8226 multiple myeloma cells; assay: combination of SAHA and CEM451 with RPMI8226 multiple myeloma cells; type: cell-based; conditions: for Effect of CEM451 / Effect of SAHA: RPMI8226
p38 MAPK alpha = p38 MAPK alpha (Homo sapiens, UniProt Q16539); assay: in vitro kinase assay, p38 MAPK alpha catalytic activity; type: biochemical
Chain of p38 MAPK alpha (Q16539 whole entry): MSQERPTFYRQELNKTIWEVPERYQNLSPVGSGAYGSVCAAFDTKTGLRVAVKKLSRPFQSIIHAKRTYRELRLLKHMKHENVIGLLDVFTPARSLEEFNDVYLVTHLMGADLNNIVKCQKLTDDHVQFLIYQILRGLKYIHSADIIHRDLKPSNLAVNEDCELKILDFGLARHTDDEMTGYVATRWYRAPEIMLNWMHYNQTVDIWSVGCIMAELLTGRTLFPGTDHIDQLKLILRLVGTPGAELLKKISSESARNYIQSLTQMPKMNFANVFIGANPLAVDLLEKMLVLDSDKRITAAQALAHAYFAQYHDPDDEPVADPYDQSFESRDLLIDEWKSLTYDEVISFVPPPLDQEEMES
Method: (§2) FIGS. 6A-6C. In vitro kinase assays for p38a (FIG. 6A), p38β(FIG. 6B), and […] (FIG. 6C) at 100 nM.
as §1

hematopoietic cell lines = assay: antitumor activity against hematopoietic cell lines; type: cell-based
Excerpt: as §1

Hut78 cells = assay: combination study of HDAC inhibitors and CEM451 with Hut78 cells; type: cell-based; conditions: for Effect of CEM451 / Effect of Romidepsin / Effect of SAHA: Hut78
p38 MAPK beta = p38 MAPK beta (Homo sapiens, UniProt Q15759); assay: in vitro kinase assay, p38 MAPK beta catalytic activity; type: biochemical
Chain of p38 MAPK beta (Q15759 whole entry): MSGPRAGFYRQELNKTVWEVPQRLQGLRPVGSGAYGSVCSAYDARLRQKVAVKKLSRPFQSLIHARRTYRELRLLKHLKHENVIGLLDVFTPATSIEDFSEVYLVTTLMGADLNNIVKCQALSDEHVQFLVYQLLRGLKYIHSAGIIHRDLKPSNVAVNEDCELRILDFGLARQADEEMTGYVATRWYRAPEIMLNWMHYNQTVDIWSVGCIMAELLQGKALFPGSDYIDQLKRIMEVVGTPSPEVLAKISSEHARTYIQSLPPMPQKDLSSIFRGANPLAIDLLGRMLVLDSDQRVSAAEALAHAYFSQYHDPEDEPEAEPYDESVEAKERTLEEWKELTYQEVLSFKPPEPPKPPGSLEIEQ
Method: as §2, §1

SMILES: Cc1ccc(NC(=O)c2cccc(C(F)(F)F)c2)cc1Nc1ncnc2nc(NC3CC3)ncc12 [CEM451, N-(3-((7-(cyclopropylamino)pyrimido[4,5-d]pyrimidin-4-yl)amino)-4-methylphenyl)-3-(trifluoromethyl)benzamide]
- IC50 (K562 CML cells): 540 nM
- Effect of CEM451 ([1]; CEM451 5 μM): 0.47
- Effect of CEM451 ([1]; CEM451 10 μM): 0.71
- Effect of CEM451 ([1]; CEM451 15 μM): 0.81
- effect in combination with SAHA ([1]; RPMI8226 MM cells): synergistic effects
- IC50 (p38 MAPK alpha): 6.2 nM
- antitumor activities against hematopoietic cell lines (hematopoietic cell lines): broadly showed antitumor activities
- Effect of CEM451 (Hut78 cells; Romidepsin combination study, CEM451 5 μM): 0.57
- Effect of CEM451 (Hut78 cells; Romidepsin combination study, CEM451 10 μM): 0.72
- Effect of CEM451 (Hut78 cells; Romidepsin combination study, CEM451 15 μM): 0.83
- Effect of CEM451 (Hut78 cells; high doses study with SAHA, CEM451 5 μM): 0.48
- Effect of CEM451 (Hut78 cells; high doses study with SAHA, CEM451 10 μM): 0.65
- Effect of CEM451 (Hut78 cells; high doses study with SAHA, CEM451 15 μM): 0.81
- Effect of CEM451 (Hut78 cells; low doses study, CEM451 0.5 μM): 0.24
- Effect of CEM451 (Hut78 cells; low doses study, CEM451 1 μM): 0.26
- Effect of CEM451 (Hut78 cells; low doses study, CEM451 3 μM): 0.45
- effect in combination with SAHA (Hut78 cells; Hut78 CTCL cells): synergistic effects
- IC50 (p38 MAPK beta): 13 nM

SMILES: C/C=C1\NC(=O)[C@H]2CSSCC/C=C/[C@H](CC(=O)N[C@H](C(C)C)C(=O)N2)OC(=O)[C@H](C(C)C)NC1=O [Romidepsin, reference compound]
- Effect of Romidepsin (Hut78 cells; Romidepsin 0.001 μM): 0.1
- Effect of Romidepsin (Hut78 cells; Romidepsin 0.0015 μM): 0.58
- Effect of Romidepsin (Hut78 cells; Romidepsin 0.002 μM): 0.92

SMILES: O=C(CCCCCCC(=O)Nc1ccccc1)NO [SAHA, reference compound]
- Effect of SAHA ([1]; SAHA 0.6 μM): 0.63
- Effect of SAHA ([1]; SAHA 0.9 μM): 0.8
- Effect of SAHA ([1]; SAHA 1.2 μM): 0.91
- Effect of SAHA (Hut78 cells; high doses study, SAHA 0.6 μM): 0.16
- Effect of SAHA (Hut78 cells; high doses study, SAHA 0.9 μM): 0.27
- Effect of SAHA (Hut78 cells; high doses study, SAHA 1.2 μM): 0.74
- Effect of SAHA (Hut78 cells; low doses study, SAHA 0.6 μM): 0.3
- Effect of SAHA (Hut78 cells; low doses study, SAHA 0.9 μM): 0.59
- Effect of SAHA (Hut78 cells; low doses study, SAHA 1.2 μM): 0.84
